What all share (format): cell-based, rat
Assay [1] concerns 832/13 cells. The assay can be described thus: MTS dye reduction assay. To be noted: 1 ng/ml IL-1β, 18 h. As for the experimental part: Nitrite in the cell culture media was measured as an index of NO production using the Griess assay kit (Promega, Madison, Wis.), whereas cellular reduction of the 3-(4,5-dimethylthiazol-2-yl)-5-(3-carboxymethoxyphenyl)-2-(4-sulfophe-nyl)-2H-tetrazohum, inner salt (MTS) dye was determined using the MTS 1 solution kit (Promega) according to the manufacturer's protocol.
In general terms: Tetrazolium dyes change colour on reduction, which living cells bring about.

For assay [2], the system named is CCL20. Kind of assay: CCL20 secretion into media of 832/13 cells, ELISA. To be noted: glucose 2, 4, 8 or 16 mM; IL-1β 6 h. As for the experimental part:
832/13 cells were grown in 12-well plates and treated as indicated. RPMI was supplemented with 0.3% BSA, and media were collected at the indicated time points. In addition, the cells were lysed using M-PER lysis reagent (Thermo Fisher Scientific) to quantify total intracellular protein content. CCL2 and CCL20 secretion into the media was measured by CCL2 Quantikine ELISA kit (R & D Systems, Minneapolis, Minn.) and CCL20 DuoSet ELISA kit (R & D Systems) according to the manufacturer's protocol. ELISA data were normalized to total protein to account for any differences in cell number between treatment groups.
In general terms: In an ELISA, binding on a coated surface is turned into a signal by an enzyme label.

Assay [3] deals with 832/13 cells. The assay can be described thus: Live cell calcium imaging, glucose-induced calcium response (Calcium Green). The procedure:
832/13 cells were plated into six-well plates containing poly-d-lysine-coated coverslips (Neuvitro, Vancouver, Wash.). At 50% confluence, cells were treated for 18 h with one of four experimental groups: 1 ng/ml […] alone, 1 mM I-NMMA alone, IL-1β+ I-NMMA, or normal growth media. Immediately prior to imaging, cells were preloaded with Calcium Green 1 AM (CG, C3012; Life Technologies) by transferring coverslips to a solution of 10|×M CG in 20% Pluronic F127 in DMSO (Life Technologies) made up in carbogenated (95% 02-5% C02) normal Krebs. The recipe for normal Krebs solution was (in mM) 124 NaCl, 25 NaHC03, 2 glucose, 3 KC1, 2 CaCl2, 1.5 NaH2P04, and 1 MgS04-7H20, which corrected to pH 7.4 with HCl. After incubation in the CG solution for 30 min, coverslips were transferred to carbogenated normal Krebs at 29° C.
Coverslips were transferred to a recording chamber on a fixed stage Zeiss Axioskop2 microscope equipped with a Perkin Elmer Ultra-view/Yokogawa C10 spinning disk laser confocal illuminator. Cells were illuminated with the 488 nm laser; CG-calcium fluorescence signals were collected at 509 nm. Cells were visualized with a X40 water immersion objective. Images were collected with a Hammamatsu Ocra-ER charge-coupled device camera. The confocal system, including image collection, was controlled by Perkin-Elmer Improvision software.
Cells on coverslips were constantly perfused with normal Krebs solution at 29° C. at a rate of 3 ml/min. After 10 min, the perfusion solution was switched to one containing 12 mM glucose and proportionally less sodium chloride to maintain osmolality. The 12 mM glucose challenge was applied for 5 min, followed by a 5 min washout period. Images of CG-labeled cells were collected continuously during the challenge period at a rate of 20/min, with each frame taking 1 s. Images were collected as TIFF stacks and processed using Nikon Elements AR software. Individual cells in the field were designated as regions of interest (ROI), and their fluorescence signal over time was captured. Background fluorescence was subtracted from the fluorescence signal of individual ROIs. The relative changes in cytoplasmic calcium in the cells were expressed as changes in fluorescence [(AF/F) %], where F is the intensity of the baseline fluorescence signal before stimulation and AF is the difference between the peak fluorescence intensity and the baseline signal. Therefore, magnitude of response was normalized for each individual ROI.

The test system of assay [4] is Nkx6.1. The assay can be described thus: Nkx6.1 protein abundance, immunoblot of cytosolic and nuclear fractions. To be noted: 832/13 cells, IL-1β 4 h. The procedure:
(§1) Cell lysis and extraction of cytoplasmic and nuclear protein fractions was performed using the NE-PER kit (Thermo Fisher Scientific) according to the manufacturer's directions. The protein concentration of the lysate was determined using the bicinchoninic acid assay (Thermo Fisher Scientific), using BSA as the standard. SDS-PAGE, transfer to polyvi-nylidene difluoride membranes, membrane blocking before antibody incubation, and downstream subsequent detection using a ChemiDoc imaging system (Bio-Rad) have been described previously (16). Antibodies detecting β-actin or tubulin were used as loading controls. Antibodies used were from the following sources: iNOS (Santa Cruz Biotechnology), (3-actin (Cell Signaling Technology), Ikα: (Santa Cruz Biotechnology), tubulin (Cell Signaling Technology), and Pdx-1 (Cell Signaling Technology). The antibody recognizing Nkx6.1 has been described (34). Immunoblot images were quantified using Image Lab software (Bio-Rad).
A general note: Immunoblotting shows a protein as a band on a membrane.

For assay [5], the system named is 832/13 and 833/15 cells. Kind of assay: Mitochondrial/nuclear DNA ratio analysis. The following applies: 6 or 18 h. As for the experimental part:
Genomic DNA was isolated using a DNeasy kit from Qiagen (Valencia, Calif.) per the manufacturer's protocol and quantified via quantitative PCR using iTaq Universal SYBR Green Supermix (Bio-Rad). Mitochondrial number was determined as the expression of genes encoded by mitochondrial DNA (COI and ATP6) relative to nuclear genes (NDUFA and SDHA) using the AACT method. This methodology has been described previously (24).

Assay [6] relates to Pdx-1. Kind of assay: Pdx-1 protein abundance, immunoblot. The following applies: 832/13 cells, IL-1β 4 h. As for the experimental part:
as §1

Assay [7] relates to 832/13 cells. Kind of assay: Nitric oxide by EPR spectroscopy with (MGD)2Fe2+ spin trap. To be noted: 1 ng/ml IL-1β 18 h. As for the experimental part: The spin trap Af-methyl-d-glucamine dithiocarbamate-iron complex [(MGD)2-Fe^2+] was prepared fresh in each experiment by making stock solutions of 500 mM MGD and 100 mM Fe^2+ (from FeS04.7 H20) in ultrapure water under anaerobic conditions. A final concentration of 25 mM MGD and 5 mM Fe^2+ was introduced onto cells in culture using serum-free media with a 30-min incubation period. Supernatants were then collected for the measurements of the (MGD)2-iron-NO complex. All electron paramagnetic resonance (EPR) measurements were carried out in a quartz flat cell at room temperature. Samples were transferred directly into the flat cell, which was then placed into the cavity of a Bruker EMX Plus spectroscope. Typical instrumental conditions were as follows: 20 mW of microwave power, 5.0-G modulation amplitude, 1×10^5 gain, 0.163-s time constant, and 80-G scan range. Quantitation was carried out by measuring and comparing the first peak heights on the spectra.

Setting [8] is: pretreated 18 h with IL-1β alone, 12 mM glucose.

As for “IL-1β: proinflammatory cytokine purchased from Thermo Fisher Scientific, used at 1 ng/ml”, the “decrease in reduction of the MTS dye” value in assay [1] is 38%. Also, the “IL-1β-induced secretion of CCL20 over a range of glucose concentrations” value in assay [2] is “not different”. In assay [3] (setting [8]), the “average response magnitude (change in fluorescence)” value was found to be 20% and the “cells responding to the glucose challenge” value is given as 61%. The “reduction of responses relative to control group” value in assay [3] (pretreated with IL-1β alone) is recorded as 39%. For the same substance, in assay [4], the “decrease in Nkx6.1 abundance” value amounted to 47%. Also, the “mitochondrial/nuclear DNA ratios” value in assay [5] is “did not detect any alterations”. In addition, in assay [6], the “amount of Pdx-1 protein” value is listed as “unchanged”. For the same substance, the “nitric oxide production in response to IL-1β” value in assay [7] is “robust production of nitric oxide”.

(Values after patent US20190086390A1, “INDIRECT ASSESSMENT OF INSULIN RELEASE IN A CELL” (Board of Supervisors of Louisiana State University and …, priority 2016, published 2019).)
